Source: BindingDB's records for doi:10.1046/j.1471-4159.2000.740478.x (Janssen Research Foundation, 2000)
Values joined by “and” are separate entries in the source; they are usually repeats but may differ in a detail not shown here. Equal values may be shown once.

molecular target: 5-hydroxytryptamine receptor 4 (Homo sapiens, UniProt Q13639)
Sequence (Q13639 whole entry): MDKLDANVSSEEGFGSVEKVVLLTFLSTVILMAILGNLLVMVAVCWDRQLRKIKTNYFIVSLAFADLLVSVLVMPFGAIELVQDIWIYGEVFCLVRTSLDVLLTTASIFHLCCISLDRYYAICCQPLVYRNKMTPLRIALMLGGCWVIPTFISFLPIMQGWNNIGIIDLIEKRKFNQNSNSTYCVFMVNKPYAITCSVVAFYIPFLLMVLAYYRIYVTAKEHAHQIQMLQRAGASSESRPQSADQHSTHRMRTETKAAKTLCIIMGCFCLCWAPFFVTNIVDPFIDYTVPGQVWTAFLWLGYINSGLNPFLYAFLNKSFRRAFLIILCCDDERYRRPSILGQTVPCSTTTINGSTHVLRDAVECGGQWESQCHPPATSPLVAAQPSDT

| SMILES | Ki |
| --- | --- |
| CCCCN1CCC(COC(=O)c2cc(Cl)c(N)c3c2OCCO3)CC1 [CAS_121881] | 0.06 nM and 0.03 nM |
| Cn1cc(C(=O)OCC2CCN(CCNS(C)(=O)=O)CC2)c2ccccc21 [GR 113808] | 0.31 nM and 0.5 nM |
| COc1ccc2[nH]cc(C=NN=C(N)NCCCCO)c2c1 [SDZ-HTF-919] | 15.8 nM and 10 nM and 25.1 nM |
| CCOc1cc(N)c(Cl)cc1C(=O)NCC1CN(Cc2ccc(F)cc2)CCO1 (stereo not given) [SMR000469200] | 200 nM and 631 nM and 126 nM |
| COc1ccc2[nH]cc(CCN)c2c1 [tryptamine, 5-Methoxy] | 794 nM |
